Experimental data taken from US20240270762A1, “PENICILLIN-BINDING PROTEIN INHIBITORS” (priority 2021, published 2024).
≈ marks a conversion by molar mass, not a printed value.

Tests used:
A. baumannii ATCC 17978 = experiment: microbe, parasite or virus in culture; assay type: cell-based; details: Acinetobacter baumannii, ATCC17978, read-out: MIC, A. baumannii ATCC 17978
N. gonorrhoeae WHO K = experiment: Liquid broth MIC in Fastidious broth; details: Neisseria gonorrhoeae, read-out: Minimum Inhibitory Concentration (MIC), N. gonorrhoeae WHO K
[1] = tested on: P. aeruginosa (ΔmexAB-oprM); experiment: Broth microdilution MIC in iron-depleted CAMHB (IDM); assay type: cell-based; details: Pseudomonas aeruginosa; iron-depleted CAMHB (IDM); […]; read-out: Minimum inhibitory concentration, P. aeruginosa ΔmexAB-oprM
[2] = biological target: T1, PBP1a from Acinetobacter baumannii (ATCC 19606) (Acinetobacter baumannii, UniProt A0ABX6CK30); experiment: Bocillin-FL fluorescence polarization competition binding, A. baumannii PBP1a; details: fluorescence polarization competition binding assay using Bocillin-FL; read-out: A. baumannii PBP1a Potency
T1 sequence (A0ABX6CK30 1-851): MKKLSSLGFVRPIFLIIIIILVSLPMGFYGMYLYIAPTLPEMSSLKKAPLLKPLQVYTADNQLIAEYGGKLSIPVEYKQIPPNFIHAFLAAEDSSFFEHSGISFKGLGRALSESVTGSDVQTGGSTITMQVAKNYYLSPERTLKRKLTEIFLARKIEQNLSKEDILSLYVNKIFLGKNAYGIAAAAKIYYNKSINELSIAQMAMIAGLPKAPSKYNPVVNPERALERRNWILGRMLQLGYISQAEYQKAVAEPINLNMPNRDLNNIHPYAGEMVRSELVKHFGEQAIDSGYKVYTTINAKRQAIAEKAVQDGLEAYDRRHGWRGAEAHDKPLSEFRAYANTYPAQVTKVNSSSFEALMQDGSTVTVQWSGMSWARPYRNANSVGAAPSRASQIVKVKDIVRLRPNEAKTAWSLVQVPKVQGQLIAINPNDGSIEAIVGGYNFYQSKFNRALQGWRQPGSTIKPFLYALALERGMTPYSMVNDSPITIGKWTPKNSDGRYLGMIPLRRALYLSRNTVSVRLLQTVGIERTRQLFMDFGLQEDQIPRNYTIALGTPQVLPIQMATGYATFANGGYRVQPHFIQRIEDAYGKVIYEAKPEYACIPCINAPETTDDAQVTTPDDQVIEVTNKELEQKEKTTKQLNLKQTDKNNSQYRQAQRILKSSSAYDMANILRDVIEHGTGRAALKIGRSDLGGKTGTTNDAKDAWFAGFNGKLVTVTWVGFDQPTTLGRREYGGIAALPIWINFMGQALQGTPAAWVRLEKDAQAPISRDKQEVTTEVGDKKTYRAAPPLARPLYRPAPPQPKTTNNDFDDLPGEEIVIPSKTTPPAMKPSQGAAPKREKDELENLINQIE
How it was run: (§1)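 Purified PBPs pre-incubated with inhibitor (E. coli PBP3 1.5 μM, 30 min; P. aeruginosa PBP3 0.75 μM, A. baumannii PBP1a 1 μM and PBP3 0.2 μM, 15 min), then Bocillin-FL 0.1 μM (0.05 μM for PBP1a) added; FP read up to 60 min. EC50 = concentration halving bound Bocillin-FL.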

N. gonorrhoeae WHO Z = experiment: Liquid broth MIC in Fastidious broth; details: Neisseria gonorrhoeae, read-out: Minimum Inhibitory Concentration (MIC), N. gonorrhoeae WHO Z
A. baumannii CDC-0033 = experiment: microbe, parasite or virus in culture; assay type: cell-based; details: Acinetobacter baumannii, CDC0033, read-out: MIC, A. baumannii CDC-0033
[3] = biological target: T2, PBP3 from Escherichia coli (K-12) (Escherichia coli, UniProt P0AD68); experiment: Bocillin-FL fluorescence polarization competition binding, E. coli PBP3
T2 construct: made in house
How it was run: as §1

A. baumannii ATCC 19606 = experiment: microbe, parasite or virus in culture; assay type: cell-based; details: Acinetobacter baumannii, ATCC19606, read-out: MIC, A. baumannii ATCC 19606

T2 sequence (P0AD68 1-577): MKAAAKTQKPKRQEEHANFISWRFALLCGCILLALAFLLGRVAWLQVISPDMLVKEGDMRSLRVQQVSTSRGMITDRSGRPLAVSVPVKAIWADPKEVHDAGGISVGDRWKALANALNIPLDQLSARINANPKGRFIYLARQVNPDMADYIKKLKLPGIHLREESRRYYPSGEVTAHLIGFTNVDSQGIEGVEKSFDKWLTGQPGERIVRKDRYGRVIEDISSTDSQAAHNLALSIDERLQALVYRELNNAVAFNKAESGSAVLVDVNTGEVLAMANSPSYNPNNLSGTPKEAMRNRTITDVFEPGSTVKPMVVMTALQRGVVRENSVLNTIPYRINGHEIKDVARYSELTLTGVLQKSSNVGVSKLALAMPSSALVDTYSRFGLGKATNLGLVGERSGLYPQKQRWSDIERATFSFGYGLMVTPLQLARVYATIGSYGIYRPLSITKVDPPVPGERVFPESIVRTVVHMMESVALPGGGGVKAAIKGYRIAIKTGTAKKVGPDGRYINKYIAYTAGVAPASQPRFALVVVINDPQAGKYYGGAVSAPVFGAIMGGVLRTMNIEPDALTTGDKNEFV

Compound | MIC (A. baumannii ATCC 17978) [µg/mL] | MIC (N. gonorrhoeae WHO K) [µg/mL] | MIC [1] [µg/mL] | IC50 [2] [µM] | MIC (N. gonorrhoeae WHO Z) [µg/mL] | MIC (A. baumannii CDC-0033) [µg/mL] | EC50 [3] [µM] | MIC (A. baumannii ATCC 19606) [µg/mL]
O=C(NCCCN1CCN(C(=O)NC(C(=O)N[C@H]2Cc3ccc(F)c(C(=O)O)c3OB2O)c2cc(F)c(O)c(O)c2Cl)C(=O)C1=O)Nc1cccc(O)c1 (stereo partly drawn) [Example 206, (3R)-3-(2-(2-chloro-5-fluoro-3,4-dihydroxyphenyl)-2-(4-(3-(3-(3-hydroxyphenyl)ureido)propyl)-2,3-dioxopiperazine-1-carboxamido)acetamido)-7-fluoro-2-hydroxy-3,4-dihydro-2H-benzo[e][1,2]oxaborinine-8-carboxylic acid] | < 1 | > 64 | < 1 | > 250 | 16 to 32 (≈ 20.6 to 41.3 µM) | 2 to 4 (≈ 2.58 to 5.16 µM) | < 10 | < 1
O=C(NCCN1CCN(C(=O)NC(C(=O)N[C@H]2Cc3ccc(F)c(C(=O)O)c3OB2O)c2cc(F)c(O)c(O)c2Cl)C(=O)C1=O)c1ccccc1 (stereo partly drawn) [Example 207, (3R)-3-(2-(4-(2-benzamidoethyl)-2,3-dioxopiperazine-1-carboxamido)-2-(2-chloro-5-fluoro-3,4-dihydroxyphenyl)acetamido)-7-fluoro-2-hydroxy-3,4-dihydro-2H-benzo[e][1,2]oxaborinine-8-carboxylic acid] | < 1 | > 64 | < 1 | > 250 | 16 to 32 (≈ 21.9 to 43.8 µM) | 8 to 16 (≈ 11 to 21.9 µM) | < 10 | 2 to 4 (≈ 2.74 to 5.48 µM)
CN(CCN1CCN(C(=O)N[C@@H](C(=O)N[C@H]2Cc3ccc(F)c(C(=O)O)c3OB2O)c2cc(F)c(O)c(O)c2Cl)C(=O)C1=O)Cc1ccc(N)nc1 [Example 209, (R)-3-((R)-2-(4-(2-(((6-aminopyridin-3-yl)methyl)(methyl)amino)ethyl)-2,3-dioxopiperazine-1-carboxamido)-2-(2-chloro-5-fluoro-3,4-dihydroxyphenyl)acetamido)-7-fluoro-2-hydroxy-3,4-dihydro-2H-benzo[e][1,2]oxaborinine-8-carboxylic acid] | < 1 | > 64 | < 1 | > 250 | 16 to 32 (≈ 21.5 to 42.9 µM) | 2 to 4 (≈ 2.68 to 5.36 µM) | < 10 | < 1
O=C(NCCCN1CCN(C(=O)N[C@@H](C(=O)N[C@H]2Cc3ccc(F)c(C(=O)O)c3OB2O)c2cc(F)c(O)c(O)c2Cl)C(=O)C1=O)c1cccnc1 [Example 210, (R)-3-((R)-2-(2-chloro-5-fluoro-3,4-dihydroxyphenyl)-2-(4-(3-(nicotinamido)propyl)-2,3-dioxopiperazine-1-carboxamido)acetamido)-7-fluoro-2-hydroxy-3,4-dihydro-2H-benzo[e][1,2]oxaborinine-8-carboxylic acid] | < 1 | > 64 | < 1 | > 250 | 16 to 32 (≈ 21.5 to 43 µM) | 8 to 16 (≈ 10.7 to 21.5 µM) | < 10 | < 1
O=C(NCCCN1CCN(C(=O)NC(C(=O)N[C@H]2Cc3ccc(F)c(C(=O)O)c3OB2O)c2cc(F)c(O)c(O)c2Cl)C(=O)C1=O)c1nccs1 (stereo partly drawn) [Example 211, (3R)-3-(2-(2-chloro-5-fluoro-3,4-dihydroxyphenyl)-2-(2,3-dioxo-4-(3-(thiazole-2-carboxamido)propyl)piperazine-1-carboxamido)acetamido)-7-fluoro-2-hydroxy-3,4-dihydro-2H-benzo[e][1,2]oxaborinine-8-carboxylic acid] | < 1 | > 64 | < 1 | > 250 | 16 to 32 (≈ 21.3 to 42.6 µM) | 2 to 4 (≈ 2.66 to 5.33 µM) | < 10 | < 1
O=C(O)c1c(F)ccc2c1OB(O)[C@@H](NC(=O)C(NC(=O)N1CCN(CCCNC(=O)[C@@H]3CCCN3)C(=O)C1=O)c1cc(F)c(O)c(O)c1Cl)C2 (stereo partly drawn) [Example 212, (3R)-3-(2-(2-chloro-5-fluoro-3,4-dihydroxyphenyl)-2-(2,3-dioxo-4-(3-((S)-pyrrolidine-2-carboxamido)propyl)piperazine-1-carboxamido)acetamido)-7-fluoro-2-hydroxy-3,4-dihydro-2H-benzo[e][1,2]oxaborinine-8-carboxylic acid] | < 1 | > 64 | < 1 | > 250 | > 64 | 8 to 16 (≈ 10.9 to 21.7 µM) | 10 to 50 | < 1
O=C(NCCCN1CCN(C(=O)NC(C(=O)N[C@H]2Cc3ccc(F)c(C(=O)O)c3OB2O)c2cc(F)c(O)c(O)c2Cl)C(=O)C1=O)Nc1cccnc1 (stereo partly drawn) [Example 213, (3R)-3-(2-(2-chloro-5-fluoro-3,4-dihydroxyphenyl)-2-(2,3-dioxo-4-(3-(3-(pyridin-3-yl)ureido)propyl)piperazine-1-carboxamido)acetamido)-7-fluoro-2-hydroxy-3,4-dihydro-2H-benzo[e][1,2]oxaborinine-8-carboxylic acid] | < 1 | > 64 | < 1 | > 250 | > 64 | 8 to 16 (≈ 10.5 to 21.1 µM) | < 10 | < 1
O=C(NCCN1CCN(C(=O)NC(C(=O)N[C@H]2Cc3ccc(F)c(C(=O)O)c3OB2O)c2cc(F)c(O)c(O)c2Cl)C(=O)C1=O)c1ccc(O)cc1 (stereo partly drawn) [Example 214, (3R)-3-(2-(2-chloro-5-fluoro-3,4-dihydroxyphenyl)-2-(4-(2-(4-hydroxybenzamido)ethyl)-2,3-dioxopiperazine-1-carboxamido)acetamido)-7-fluoro-2-hydroxy-3,4-dihydro-2H-benzo[e][1,2]oxaborinine-8-carboxylic acid] | < 1 | > 64 | < 1 | > 250 | 16 to 32 (≈ 21.5 to 42.9 µM) | 8 to 16 (≈ 10.7 to 21.5 µM) | < 10 | < 1
O=C(NCCN1CCN(C(=O)NC(C(=O)N[C@H]2Cc3ccc(F)c(C(=O)O)c3OB2O)c2cc(F)c(O)c(O)c2Cl)C(=O)C1=O)c1cccc(O)c1 (stereo partly drawn) [Example 215, (3R)-3-(2-(2-chloro-5-fluoro-3,4-dihydroxyphenyl)-2-(4-(2-(3-hydroxybenzamido)ethyl)-2,3-dioxopiperazine-1-carboxamido)acetamido)-7-fluoro-2-hydroxy-3,4-dihydro-2H-benzo[e][1,2]oxaborinine-8-carboxylic acid] | < 1 | > 64 | < 1 | > 250 | 16 to 32 (≈ 21.5 to 42.9 µM) | 8 to 16 (≈ 10.7 to 21.5 µM) | < 10 | < 1
O=C(NCCN1CCN(C(=O)NC(C(=O)N[C@H]2Cc3ccc(F)c(C(=O)O)c3OB2O)c2cc(F)c(O)c(O)c2Cl)C(=O)C1=O)c1ccncc1 (stereo partly drawn) [Example 216, (3R)-3-(2-(2-chloro-5-fluoro-3,4-dihydroxyphenyl)-2-(4-(2-(isonicotinamido)ethyl)-2,3-dioxopiperazine-1-carboxamido)acetamido)-7-fluoro-2-hydroxy-3,4-dihydro-2H-benzo[e][1,2]oxaborinine-8-carboxylic acid] | < 1 | > 64 | < 1 | > 250 | 16 to 32 (≈ 21.9 to 43.8 µM) | 8 to 16 (≈ 10.9 to 21.9 µM) | < 10 | < 1
